According to patent US9326978B2, “A3 adenosine receptor allosteric modulators” (The United States of America, Represented by the Secretary, …, priority 2006, dated 2016):
“And” between values parts separate entries of the source, which are not always exact repeats. Equal entries are not always repeated. “Also recorded” adds a separate entry of the source. Where two headings read alike, the source gives them in different places.

Tests used:
human A1AR = human A1AR (Homo sapiens (Human), UniProt P30542); experiment: Binding assay to the human A1AR ([3H]R-PIA); conditions: 1 h, 10 μM, CHO cells, read-out: hA1AR % displ. at 10 μM
human A1AR, sequence (P30542 whole entry): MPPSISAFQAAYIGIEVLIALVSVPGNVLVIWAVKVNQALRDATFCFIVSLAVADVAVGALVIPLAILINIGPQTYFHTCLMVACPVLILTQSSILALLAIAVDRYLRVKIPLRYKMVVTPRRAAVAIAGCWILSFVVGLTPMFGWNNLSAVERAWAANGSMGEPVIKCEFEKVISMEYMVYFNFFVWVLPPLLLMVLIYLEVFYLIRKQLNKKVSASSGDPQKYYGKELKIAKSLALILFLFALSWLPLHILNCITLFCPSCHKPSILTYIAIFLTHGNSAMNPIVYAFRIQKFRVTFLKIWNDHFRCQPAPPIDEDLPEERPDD
Protocol: (§1) CHO (Chinese hamster ovary) cells expressing the recombinant human ARs (HEK-293 cells were used for the human A2AAR) were cultured in DMEM and F12 (1:1) supplemented with 10% fetal bovine serum, 100 units/ml penicillin, […] streptomycin and 2 μmol/ml glutamine. Cells were harvested by trypsinization. After homogenization and suspension, cells were centrifuged at 500 g for 10 min, and the pellet was re-suspended in 50 mM Tris.HCl buffer (pH 7.4) containing 10 mM MgCl2. The suspension was homogenized with an electric homogenizer for 10 sec, and was then re-centrifuged at 20,000 g for 20 min at 4° C. The resultant pellets were resuspended in buffer in the presence of 3 Units/mL adenosine deaminase, and the suspension was stored at −80° C. until the binding experiments. The protein concentration was measured using the Bradford assay.
(§2) For binding to the human A1AR, [^3H]R-PIA (2 nM) was incubated with membranes (40 μg/tube) from CHO cells stably expressing the human A1AR at 25° C. for 60 min in 50 mM Tris.HCl buffer (pH 7.4; MgCl2, 10 mM) in a total assay volume of 200 μL. Nonspecific binding was determined using 10 μM of N^6-cyclopentyladenosine. For human A2A AR binding, membranes (20 μg/tube) from HEK-293 cells stably expressing the human A2A AR were incubated with 15 nM [^3H]CGS21680 at 25° C. for 60 min in 200 μL of 50 mM Tris.HCl, pH 7.4, containing 10 mM MgCl2. N-5′-ethyluronamidoadenosine (10 μM) was used to define nonspecific binding. Reaction was terminated by filtration with GF/B filters.

human A2A AR = human A2A AR (Homo sapiens (Human), UniProt P29274); experiment: Binding assay to the human A2A AR ([3H]CGS21680); conditions: 10 μM
human A2A AR, sequence (P29274 whole entry): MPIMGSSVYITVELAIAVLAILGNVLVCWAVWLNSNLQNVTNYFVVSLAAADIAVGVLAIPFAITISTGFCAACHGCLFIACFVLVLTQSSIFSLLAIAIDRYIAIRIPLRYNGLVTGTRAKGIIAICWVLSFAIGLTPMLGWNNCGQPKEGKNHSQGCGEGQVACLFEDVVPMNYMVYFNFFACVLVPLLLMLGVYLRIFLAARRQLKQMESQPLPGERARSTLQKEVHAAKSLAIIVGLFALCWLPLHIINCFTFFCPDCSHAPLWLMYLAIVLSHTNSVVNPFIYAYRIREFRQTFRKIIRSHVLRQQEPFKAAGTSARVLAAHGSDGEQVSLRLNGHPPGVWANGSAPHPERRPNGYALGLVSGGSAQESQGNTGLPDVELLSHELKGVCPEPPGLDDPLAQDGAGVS
Protocol: as §1, §2

hA2BAR = hA2BAR (Homo sapiens (Human), UniProt P29275); experiment: Effect on NECA-induced cyclic AMP accumulation at A2B receptor; note: NECA (150 nM)-induced cyclic AMP accumulation; assay type: cell-based; conditions: read-out: hA2BAR % inhib. at 10 μM
hA2BAR, sequence (P29275 whole entry): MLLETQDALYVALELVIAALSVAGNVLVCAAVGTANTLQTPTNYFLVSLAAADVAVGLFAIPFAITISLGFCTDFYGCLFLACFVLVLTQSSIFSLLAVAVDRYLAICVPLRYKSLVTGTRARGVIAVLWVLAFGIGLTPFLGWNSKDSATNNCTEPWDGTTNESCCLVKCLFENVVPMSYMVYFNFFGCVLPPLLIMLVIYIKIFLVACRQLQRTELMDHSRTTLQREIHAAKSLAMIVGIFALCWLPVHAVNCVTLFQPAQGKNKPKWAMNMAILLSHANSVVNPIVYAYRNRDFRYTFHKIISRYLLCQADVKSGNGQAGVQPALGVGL

human A3AR = human A3AR (Homo sapiens (Human), UniProt P0DMS8); experiment: Competitive binding assay to the human A3AR ([125I]I-AB-MECA)
human A3AR, sequence (P0DMS8 whole entry): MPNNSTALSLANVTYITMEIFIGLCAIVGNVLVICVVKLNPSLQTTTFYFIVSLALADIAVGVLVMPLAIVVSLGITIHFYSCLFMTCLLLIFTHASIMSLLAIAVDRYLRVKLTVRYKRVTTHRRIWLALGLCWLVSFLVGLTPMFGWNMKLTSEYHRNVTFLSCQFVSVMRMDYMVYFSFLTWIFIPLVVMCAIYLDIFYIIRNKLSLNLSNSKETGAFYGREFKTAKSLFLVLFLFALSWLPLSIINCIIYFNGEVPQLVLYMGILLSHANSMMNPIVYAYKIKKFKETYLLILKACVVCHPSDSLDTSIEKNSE
Protocol: as §1
Each tube in the competitive binding assay contained 100 μl membrane suspension (20 μg protein), 50 μl [^125I]-AB-MECA (0.5 nM), and 50 μl of increasing concentrations of the test ligands in Tris.HCl buffer (50 mM, pH 8.0) containing 10 mM MgCl2, 1 mM EDTA. Nonspecific binding was determined using 10 μM of 5′-N-ethylcarboxamidoadenosine in the buffer. The mixtures were incubated at 25° C. for 60 min. Binding reactions were terminated by filtration through Whatman GF/B filters under reduced pressure using a MT-24 cell harvester (Brandell, Gaithersburgh, Md., USA). Filters were washed three times with 9 mL ice-cold buffer. Radioactivity was determined in a Beckman 5500B γ-counter.

human A3ARs = human A3ARs (Homo sapiens (Human), UniProt P0DMS8); experiment: Cyclic AMP accumulation assay, efficacy at hA3AR; assay type: cell-based; conditions: compared to maximal effect by 2-Cl-IB-MECA alone (control = 100%)
human A3ARs, sequence (P0DMS8 whole entry): as above
Protocol: Intracellular cyclic AMP levels were measured with a competitive protein binding method (Nordstedt and Fredholm, 1990). CHO cells that expressed recombinant human A3ARs were harvested by trypsinization. After centrifugation and resuspension in medium, cells were plated in 24-well plates in 0.5 ml medium. After 24 hr, the medium was removed and cells were washed three times with 1 ml DMEM, containing 50 mM HEPES, pH 7.4. Cells were then treated with agonists and/or test compounds in the presence of rolipram (10 μM) and adenosine deaminase (3 units/ml). After 45 min forskolin (10 μM) was added to the medium, and incubation was continued an additional 15 min. The reaction was terminated by removing the supernatant, and cells were lysed upon the addition of 200 μL of 0.1 M ice-cold HCl. The cell lysate was resuspended and stored at −20° C. For determination of cyclic AMP production, protein kinase A (PKA) was incubated with [^3H]cyclic AMP (2 nM) in K2HPO4/EDTA buffer (K2HPO4, 150 mM; EDTA, 10 mM), 20 μL of the cell lysate, and 30 μL 0.1 M HCl or 50 μL of cyclic AMP solution (0-16 pmol/200 μL for standard curve). Bound radioactivity was separated by rapid filtration through Whatman GF/C filters and washed once with cold buffer. Bound radioactivity was measured by liquid scintillation spectrometry.

hA3AR = hA3AR (Homo sapiens (Human), UniProt P0DMS8); experiment: GTPγS binding at hA3AR; assay type: biochemical
hA3AR, sequence (P0DMS8 whole entry): as above

myeloid system = experiment: Effect on the myeloid system of naïve mice (differential blood count); assay type: in vivo; conditions: naïve ICR mice, orally 100 μg/kg thrice daily for two days; blood 24 and 48 hours after last administration; vs control
Protocol: A stock solution of imidazoquinoline derivative 45 was prepared by dissolving the same in DMSO. Further dilutions for treatment were performed in PBS. As a control, an equivalent amount of DMSO in PBS was used.
To test the effect of imidazoquinoline derivative 45 on the myeloid system, the compound was orally administered at a dose of 100 μg/kg, thrice daily to ICR mice, for two consecutive days. Blood samples were withdrawn 24 and 48 hours after the last drug administration. A differential blood count was performed.

[1] = tested on: adjuvant induced arthritis; experiment: Adjuvant induced arthritis (AIA) model; assay type: in vivo; conditions: AIA rats, orally twice daily 100 μg/kg from onset of disease; vs control
Protocol: Adjuvant induced arthritis model (model for rheumatoid arthritis (RA)) was established in rats by immunizing the animals with an emulsion contacting Mycobacterium tuberculosis in Freund's adjuvant (Animal Models for Autoimmune and Inflammatory disease:Adjuvant Arthritis in the Rat. Current Protocols in Immunology, Supplement 19, page 15.4.2.). Treatment with imidazoquinoline derivative 45 was initiated upon onset of disease. The imidazoquinoline derivative 45 was administered orally twice daily at a dose of 100 μg/kg.
Evaluation of disease development was carried out daily, starting upon onset of disease until the end of the study. Intensity of arthritis was scored by grading each paw from 0-4 on erythema, swelling and deformity of the joint, every day: 0=no erythema or swelling; 1=slight erythema or swelling of one of the toes or fingers; 2=erythema and swelling of more than one toe or finger; 3=erythema and swelling of the ankle or wrist; 4=complete erythema and swelling of toes or fingers and ankles or wrist, and inability to bend the ankle or wrist. All scores of the four legs from each rat are added to give up to a maximum arthritic score of 16.

For `Clc1ccc(Nc2nc3ccccc3c3[nH]c(C4CCCCC4)nc23)cc1Cl` [Compound 45, N-(3,4-Dichloro-phenyl)-2-cyclohexyl-1H-imidazo[4,5-c]quinolin-4-amine], the inhibition at 10 µM (human A1AR; [3H]R-PIA, Table 3) was < 10%, the inhibition at 10 µM (human A1AR; [3H]R-PIA, Table 4) was < 10% and the inhibition at 10 µM (human A1AR; [3H]R-PIA (2.0 nM), Table 2) was -2%. For the same compound, the “hA2AAR % displ. at 10 μM” value (human A2A AR; [3H]CGS 21680 (15 nM), HEK293 cells, Table 2) was −1%, the “hA2AAR % displ. at 10 μM” value (human A2A AR; [3H]CGS 21680, Table 3) was <10% and the “hA2AAR % displ. at 10 μM” value (human A2A AR; [3H]CGS 21680, Table 4) was <10%. The inhibition at 10 µM (hA2BAR) was -5.6%, the “hA3AR % displ. at 10 μM” value (human A3AR; 10 μM, [125I]I-AB-MECA, CHO cells, Table 3) was 45% and the inhibition at 10 µM (human A3AR; 1 h, 10 μM, [125I]I-AB-MECA (0.5 nM), CHO cells, Table 2, read-out: hA3AR % displ. at 10 μM) was 45%. The “affinity to orthosteric versus allosteric binding sites (selective affinity)” value (human A3AR; orthosteric sites of A1, A2A, A2B, A3 receptors vs allosteric site of A3 adenosine receptor) was “selective affinity; also recorded: best separation between orthosteric and allosteric recognition”, the “% Increase of efficacy at hA3AR at 10 μM” value (human A3ARs) was 145 ± 7% and the “Enhancement of GTPγS binding (%) at hA3AR at 10 μM” value (hA3AR; 10 μM Cl-IB-MECA alone = 100%, Table 3) was 194 ± 11% and 177%. For the same compound, the “Relative efficacy (%) at hA3AR at 10 μM (GTPγS binding) in absence of agonist” value (hA3AR; absence of agonist, 10 μM Cl-IB-MECA alone = 100%) was 6%, the “Enhancement of GTP[…]S binding (%) at hA3AR at 10 μM” value (hA3AR; compared to maximal effect by 2-Cl-IB-MECA alone (control), Table 4) was 194 ± 11% and the number of neutrophils (myeloid system) was “increased”. For the same compound, the “number of white blood cells (WBC)” value (myeloid system) was “increased” and the “clinical score (arthritic score, max 16)” value [1] was “reduction in clinical score”.
